Experiment [1] has as its target T1, cultured rat pituitary cells (Rattus norvegicus, UniProt P35353).
T1 sequence (P35353 24-415): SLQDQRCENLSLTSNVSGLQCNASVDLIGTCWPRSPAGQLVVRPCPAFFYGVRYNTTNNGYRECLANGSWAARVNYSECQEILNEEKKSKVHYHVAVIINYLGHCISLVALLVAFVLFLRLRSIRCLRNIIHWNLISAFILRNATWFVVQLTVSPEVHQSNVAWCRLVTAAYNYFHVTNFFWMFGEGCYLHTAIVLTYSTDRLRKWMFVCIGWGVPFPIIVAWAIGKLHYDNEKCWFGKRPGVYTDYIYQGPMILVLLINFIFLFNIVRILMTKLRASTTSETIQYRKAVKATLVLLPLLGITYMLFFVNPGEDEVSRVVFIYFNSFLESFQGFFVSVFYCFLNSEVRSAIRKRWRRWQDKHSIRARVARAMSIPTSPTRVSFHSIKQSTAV
The experiment can be described thus: Stimulation of ACTH and β-endorphin secretion by cultured rat pituitary cells (general procedure of Example III). The settings on record: general procedure of Example III. It counts as cell-based. On the procedure: The synthetic peptide AHC and oCRF were examined for their effects on the secretion of ACTH and B-endorphin in vitro and was also in vivo. The potency of synthetic oCRF to stimulate the secretion of ACTH and β-endorphin by cultured rat pituitary cells was measured using the procedure as generally set forth in Endocrinology, 91, 562 (1972). […] In.vivo testing is carried out using the general procedure set forth in C. Rivier et al., Science, 218, 377 (1982).

A short description of experiment [2]: Lowering of blood pressure, in vivo testing by the general procedure of Example III.

Square brackets hold non-standard residues; d marks the D form. Peptide text beside a SMILES is read from it. * marks the point of attachment. Nle = CCCC[C@H](N)C(=O)O; Bz = O=C(c1ccccc1)*

In the case of `CCCC[C@H](NC(=O)[C@H](CCC(=O)O)NC(=O)[C@H](CC(C)C)NC(=O)[C@H](CCCC)NC(=O)[C@H](CCC(=O)O)NC(=O)[C@H](CCCNC(=N)N)NC(=O)[C@H](CC(C)C)NC(=O)[C@H](CC(C)C)NC(=O)[C@H](Cc1c[nH]cn1)NC(=O)[C@H](Cc1ccccc1)NC(=O)[C@@H](NC(=O)[C@H](CC(C)C)NC(=O)[C@H](CC(=O)O)NC(=O)[C@H](CC(C)C)NC(=O)[C@H](CO)NC(=O)[C@@H](N)[C@@H](C)CC)[C@@H](C)O)C(=O)N[C@@H](C)C(=O)N[C@@H](CCCCN)C(=O)N[C@@H](C)C(=O)N[C@@H](CCC(=O)O)C(=O)N[C@@H](CCC(N)=O)C(=O)N[C@@H](CCC(=O)O)C(=O)N[C@@H](C)C(=O)N[C@@H](CCC(=O)O)C(=O)N[C@@H](CCC(N)=O)C(=O)N[C@@H](C)C(=O)N[C@@H](C)C(=O)N[C@@H](CC(C)C)C(=O)N[C@@H](CC(N)=O)C(=O)N[C@@H](CCCNC(=N)N)C(=O)N[C@@H](CCCNC(=N)N)C(=O)N[C@@H](CC(C)C)C(=O)N[C@@H](CC(C)C)C(=O)N[C@@H](CCC(=O)O)C(=O)N[C@@H](CCC(=O)O)C(=O)N[C@@H](C)C(N)=O` [[Nle^18,21, Arg^36]-AHC(6-41)] (H-ISLDLTFHLLRE[Nle]LE[Nle]AKAEQEAEQAALNRRLLEEA-NH2), in experiment [1], the “secretion of ACTH and β-END-LI” value is reported as “stimulates”. In addition, the “lowering of blood pressure” value in experiment [2] was “very significant lowering of blood pressure”.

Regarding `CC[C@H](C)[C@H](NC(=O)[C@H](CC(=O)O)NC(=O)[C@H](CC(C)C)NC(=O)[C@H](CC(C)C)NC(=O)[C@H](CCCCN)NC(=O)[C@H](CCCNC(=N)N)NC(=O)[C@H](CC(N)=O)NC(=O)[C@H](CO)NC(=O)[C@H](Cc1c[nH]cn1)NC(=O)[C@H](C)NC(=O)[C@H](CCC(N)=O)NC(=O)[C@H](CCC(N)=O)NC(=O)[C@H](C)NC(=O)[C@H](CC(C)C)NC(=O)[C@H](CCC(N)=O)NC(=O)[C@H](CC(=O)O)NC(=O)[C@H](C)NC(=O)[C@H](CCCCN)NC(=O)[C@H](CC(=O)O)NC(=O)[C@H](CCSC)NC(=O)[C@H](CCC(=O)O)NC(=O)[C@H](CC(C)C)NC(=O)[C@@H](NC(=O)[C@H](CCC(=O)O)NC(=O)[C@H](CCCNC(=N)N)NC(=O)[C@H](CC(C)C)NC(=O)[C@H](CC(C)C)NC(=O)[C@H](Cc1c[nH]cn1)NC(=O)[C@H](Cc1ccccc1)NC(=O)[C@@H](NC(=O)[C@H](CC(C)C)NC(=O)[C@H](CC(=O)O)NC(=O)[C@H](CC(C)C)NC(=O)[C@H](CO)NC(=O)[C@@H](NC(=O)[C@H]1CCCN1)[C@@H](C)CC)[C@@H](C)O)C(C)C)C(=O)N[C@@H](C)C(N)=O` [[D-Pro^4,Asp^22]-oCRF(4-41)] (H-[dP]ISLDLTFHLLREVLEMDKADQLAQQAHSNRKLLDIA-NH2), the “secretion of ACTH and β-END-LI” value in experiment [1] was “stimulates”. Further, the “lowering of blood pressure” value in experiment [2] is “very significant lowering of blood pressure”.

As for “H-SEEPPISLDLTFHLLREVLE[Nle]ARAEQLAQQAYLNRKLMEEI-NH2 [[Nle^21, Tyr^32, Leu^33, Glu^40]-rCRF]”, in experiment [1], the “secretion of ACTH and β-END-LI” value is recorded as “stimulates”. The “lowering of blood pressure” value in experiment [2] is listed as “very significant lowering of blood pressure to a greater extent than rCRF”.

For `CCCC[C@H](NC(=O)[C@@H](NC(=O)[C@H](CC(C)C)NC(=O)[C@H](CC(=O)O)NC(=O)[C@H](CC(C)C)NC(=O)[C@H](CO)NC(=O)[C@@H](NC(=O)[C@@H]1CCCN1C(=O)[C@@H]1CCCN1C(=O)[C@H](CCC(=O)O)NC(=O)CNC(=O)c1ccccc1)[C@@H](C)CC)[C@@H](C)O)C(=O)N[C@@H](Cc1c[nH]cn1)C(=O)N[C@@H](CC(C)C)C(=O)N[C@@H](CC(C)C)C(=O)N[C@@H](CCCNC(=N)N)C(=O)N[C@@H](CCC(=O)O)C(=O)N[C@H](C(=O)N[C@@H](CC(C)C)C(=O)N[C@@H](CCC(=O)O)C(=O)N[C@@H](CCSC)C(=O)N[C@@H](C)C(=O)N[C@@H](CCCNC(=N)N)C(=O)N[C@@H](C)C(=O)N[C@@H](CCC(=O)O)C(=O)N[C@@H](CCC(N)=O)C(=O)N[C@@H](CC(C)C)C(=O)N[C@@H](C)C(=O)N[C@@H](CCC(=O)O)C(=O)N[C@@H](CCC(N)=O)C(=O)N[C@@H](C)C(=O)N[C@@H](Cc1c[nH]cn1)C(=O)N[C@@H](CO)C(=O)N[C@@H](CC(N)=O)C(=O)N[C@@H](CCCNC(=N)N)C(=O)N[C@@H](CCCNC(=N)N)C(=O)N[C@@H](CC(C)C)C(=O)N[C@@H](CCSC)C(=O)N[C@@H](CCC(=O)O)C(=O)N[C@H](C(=O)N[C@H](C(N)=O)[C@@H](C)CC)[C@@H](C)CC)C(C)C` (Bz-GEPPISLDLT[Nle]HLLREVLEMARAEQLAEQAHSNRRLMEII-NH2), the “secretion of ACTH and β-END-LI” value in experiment [1] is “stimulates”. In experiment [2], the “lowering of blood pressure” value was “very significant lowering of blood pressure”.

Regarding “H-SQEPPISLDLTFHLLRE[Nle]LE[Nle]TKADQLRQQAHSNRKLLDIA-NH2 [[Nle^18,21,Arg^28]-oCRF]”, the “secretion of ACTH and β-END-LI” value in experiment [1] is “stimulates”. The “lowering of blood pressure” value in experiment [2] was “very significant lowering of blood pressure”.

As to “H-SQEPPISLDLTFALLREMLEMAKAEQEAEQAALNRLLLEEA-NH2 [[Ala^13]-AHC]”, the “secretion of ACTH and β-END-LI” value in experiment [1] is recorded as “stimulates”. Further, in experiment [2], the “lowering of blood pressure” value is given as “very significant lowering of blood pressure”.

As to “H-SQEPPISLDLTLELLREMLEMAKAEQEAEQAALNRLYLEEA-NH2 [[Leu^12, G1u^13, Tyr^37]-AHC]”, the “secretion of ACTH and β-END-LI” value in experiment [1] was “stimulates”. In experiment [2], the “lowering of blood pressure” value was “very significant lowering of blood pressure”.

For the compound `CCCC[C@H](NC(=O)[C@H](CCC(=O)O)NC(=O)[C@H](CCCNC(=N)N)NC(=O)[C@H](CC(C)C)NC(=O)[C@H](CC(C)C)NC(=O)[C@H](Cc1c[nH]cn1)NC(=O)[C@H](Cc1ccccc1)NC(=O)[C@@H](NC(=O)[C@H](CC(C)C)NC(=O)[C@H](CC(=O)O)NC(=O)[C@H](CC(C)C)NC(=O)[C@H](CO)NC(=O)[C@@H](NC(=O)[C@@H]1CCCN1C(=O)[C@@H]1CCCN1C(=O)[C@H](CCC(=O)O)NC(=O)[C@@H](N)CCC(N)=O)[C@@H](C)CC)[C@@H](C)O)C(=O)N[C@@H](CC(C)C)C(=O)N[C@@H](CCC(=O)O)C(=O)N[C@@H](CCSC)C(=O)N[C@H](C(=O)N[C@@H](CCCCN)C(=O)N[C@@H](C)C(=O)N[C@@H](CC(=O)O)C(=O)N[C@@H](CCC(N)=O)C(=O)N[C@@H](CC(C)C)C(=O)N[C@@H](C)C(=O)N[C@@H](CCC(N)=O)C(=O)N[C@@H](CCC(N)=O)C(=O)N[C@@H](C)C(=O)N[C@@H](Cc1c[nH]cn1)C(=O)N[C@@H](CO)C(=O)N[C@@H](CC(N)=O)C(=O)N[C@@H](CCCNC(=N)N)C(=O)N[C@@H](CCCCN)C(=O)N[C@@H](Cc1ccc(O)cc1)C(=O)N[C@@H](CC(C)C)C(=O)N[C@@H](CC(=O)O)C(=O)N[C@@H](CCC(=O)O)C(=O)N[C@@H](C)C(N)=O)[C@@H](C)O` [[Nle^18,Tyr^37,Glu^40]-oCRF(2-41)] (H-QEPPISLDLTFHLLRE[Nle]LEMTKADQLAQQAHSNRKYLDEA-NH2), the “secretion of ACTH and β-END-LI” value in experiment [1] was “stimulates”. In addition, the “lowering of blood pressure” value in experiment [2] is “very significant lowering of blood pressure”.

Values taken from patent EP0153845A2, “CRF analogs” (THE SALK INSTITUTE FOR BIOLOGICAL STUDIES, priority 1984, dated 1985).
